From patent US20200353052A1, “COMPOSITION FOR PROMOTING GOBLET CELL PROLIFERATION OR MUCIN SECRETION COMPRISING THYMOSIN BETA 4 OR DERIVATIVE THEREOF AS ACTIVE INGREDIENT” (G-TREEBNT CO., LTD., priority 2017, published 2020)

Assays:
Format in all cases: in vivo, NOD.B10-H2b mice
Muc5AC = test: Immunofluorescence staining of Muc5AC in cornea and conjunctiva of dry eye-induced mice; settings: eye drop instillation for 10 days, immunofluorescence (FIGS. 6 and 7)
Description: (§1) 12-week-old or older NOD.B10-H2b mice were kept in a chamber with a humidity of 40% or lower for 10 days. Scopolamine hydrobromide (Sigma-Aldrich, SLBR8568V) at a concentration of 0.5 mg/0.2 ml was injected subcutaneously into the thigh 4 times (9 am, 12 pm, 3 pm, and 6 pm) daily while the mice were kept in the chamber. After 10 days, tear secretion volume and corneal smoothness score were measured, and only those mice with a tear secretion volume of 0.06 μl or lower and a corneal smoothness score of 2 or lower were selected.
(§2) For each test drug, eye drop instillation was performed as follows: Vehicle, 4 times a day; Diquas (Santen Pharmaceutical Co., Ltd., Japan), 6 times a day; Xiidra (Shire plc, USA), twice a day; and GBT-201, twice or 4 times a day. After 10 days, each group of mice was sacrificed, the eyeballs were collected, and tissue immunostaining and molecular biological analysis were performed (FIG. 1). […]
(§3) Specifically, the eyeballs of the mice sacrificed in Experimental Example 1 were collected, and the eyes and adnexa, which had been fixed in formalin for 3 days, were cut into 6 μm sections using a microtome. […] The mounted slide was photographed using a fluorescence microscope (Leica DM2500, Leica Microsystems GmbH, Wetzlar, Germany).

Muc4 = test: Immunofluorescence staining of Muc4 in cornea and conjunctiva of dry eye-induced mice; settings: corneal and conjunctival epithelium; eye drop instillation for 10 days; immunofluorescence (FIGS. 6 and 7)
Description: as §1, §2, §3

[1] = system: mucin secreted in the conjunctiva; test: Amount of mucin secreted by Alcian blue staining of eyeball sections from dry eye-induced mice after eye drop instillation; settings: eye drop instillation for 10 days; Alcian blue staining photographs (FIG. 4)
Description: as §1
(§4) For each test drug, eye drop instillation was performed as follows: Vehicle, 4 times a day; Diquas (Santen Pharmaceutical Co., Ltd., Japan), 6 times a day; Xiidra (Shire plc, USA), twice a day; and GBT-201, twice or 4 times a day. After 10 days, each group of mice was sacrificed, the eyeballs were collected, and tissue immunostaining and molecular biological analysis were performed (FIG. 1).
In order to identify whether thymosin beta 4 results in an increase in amount of mucin secreted in the conjunctiva, the eyeballs of the mice sacrificed in Experimental Example 1 were collected and assessed through Alcian blue staining.
Specifically, the eyeballs of the mice sacrificed in Experimental Example 1 were collected, and the eyes and adnexa, which had been fixed in formalin for 3 days, were cut into 6 μm sections using a microtome. […]

[2] = system: goblet cells in the conjunctiva; test: Goblet cell number by PAS staining of eyeball sections from dry eye-induced mice after eye drop instillation; settings: eye drop instillation for 10 days; PAS staining photographs (FIG. 2)
Description: as §1, §4
In order to identify whether thymosin beta 4 promotes proliferation of goblet cells, which are cells that secrete mucin in the conjunctiva, the eyeballs of the mice sacrificed in Experimental Example 1 were collected and assessed through periodicacid-Schiff (PAS) staining. […]

Muc16 = test: Immunofluorescence staining of Muc16 in cornea and conjunctiva of dry eye-induced mice; settings: corneal and conjunctival epithelium; eye drop instillation for 10 days; immunofluorescence (FIGS. 6 and 7)
Description: as §1, §2, §3

Muc1 = test: Immunofluorescence staining of Muc1 in cornea and conjunctiva of dry eye-induced mice; settings: corneal and conjunctival epithelium; eye drop instillation for 10 days; immunofluorescence (FIGS. 6 and 7)
Description: as §1, §2, §3

thymosin beta 4 (SDKPDMAEIEKFDKSKLKKTETQEKNPLPSKETIEQEKQAGES; thymosin beta 4; listed as Homo sapiens)
increased: expression level of Muc5AC as compared with the DS D10 control group, visually identified (Muc5AC) | expression level of Muc4 as compared with the DS D10 control group, visually identified (Muc4) | amount of mucin secreted as compared with the DS D10 control group, visually identified [1] | number of goblet cells as compared with the DS D10 control group, visually identified [2] | expression level of Muc16 as compared with the DS D10 control group, visually identified (Muc16) | expression level of Muc1 as compared with the DS D10 control group, visually identified (Muc1)
